The numbers were not newly measured in patent publication US8101207B2, “Composition containing medicine extremely slightly soluble in water and method for preparation thereof” (Kowa Co., Ltd., priority 2003, dated 2012), which cites them from elsewhere.

One data set relates to interleukin-1β. The conditions noted are these: known from Japanese Patent Application Laid-Open (kokai) No. 12-198776.

With `CSc1ccc(-c2nn(Cc3ccccc3)c(=O)cc2-c2ccc(Cl)cc2)cc1` [Compound A, 2-benzyl-5-(4-chlorophenyl)-6-[4-(methylthio)phenyl]-2H-pyridazin-3-one], the solubility in water entry is “very low solubility”. In addition, the “effect of inhibiting production of interleukin-1β” value in the data set with interleukin-1β was “excellent effect”.
